Converted amounts (≈) assume the structure as drawn. “Also recorded” adds a separate entry of the source. Where two headings read alike, the source gives them in different places.
What was measured:
[1] = test system: HCT-116 (colon); assay: cancer cell growth inhibition assay (sulforhodamine B), HCT-116; assay type: cell-based; conditions: Homo sapiens, read-out: GI50 ± SE, HCT-116 (colon)
Method: (§1) The compounds were tested for their activity against breast, central nervous system (CNS), colon, and lung human tumor cell lines. The breast (MCF-7), CNS(SF-268), and lung (NCI-H460) cultures were purchased from the National Cancer Institute (Bethesda, Md.) while the colon culture (HCT-116) was purchased from the American Type Culture Collection (Arlington, Va.). All cell lines were maintained in a humidified chamber at 37° C. with 5% CO2 in RPMI-1640 medium supplemented with 10% fetal bovine serum, penicillin (1 unit/100 mL), and streptomycin (1 μg/100 mL). All cell lines were sub-cultured according to their individual growth profiles in order to ensure exponential growth throughout the experiments. Breast (10,000 cells/well), CNS (15,000 cells/well), colon (7,500 cells/well), and lung (7,500 cells/well) cancer cells were aliquoted (100 μL) into 96-well plates and allowed to grow for 24 hours before the addition of the test compounds to the media. The compounds were dissolved in DMSO and diluted in sterile media as necessary to obtain the appropriate concentration. […] Test compounds, standards, and DMSO control were incubated for 48 hours, after which the assay was terminated via the addition of cold trichloroacetic acid. The plates were incubated for one hour at 4° C., washed with deionized water (five times), and air-dried. A 100 μL aliquot of 0.4% sulforhodamine B stain in 1% acetic acid was added to each well and the plates were incubated for 30 minutes at room temperature. Following incubation, the wells were rinsed with 1% acetic acid (five times) and the bound stain was dissolved in 100 μL of 10 mM TRIZMA base. The plates were shaken for five minutes on a gyrorotary shaker after which the absorbance of each well was recorded with an automated microplate reader (model EL800, Bio-Tek Instruments, Inc., Winooski, Vt.) at 515 nm. Three independent experiments were performed in triplicate using at least five drug concentrations inclusive of the 50% growth inhibitory concentration. Results are expressed as the concentration of compound required to inhibit cellular growth 50% (GI50) ±SE.

[2] = test system: MCF-7 (breast); assay: cancer cell growth inhibition assay (sulforhodamine B), MCF-7; assay type: cell-based; conditions: Homo sapiens, MCF7, read-out: GI50 ± SE, MCF-7 (breast)
Method: as §1

[3] = test system: SF-268 (CNS); assay: cancer cell growth inhibition assay (sulforhodamine B), SF-268; assay type: cell-based; conditions: Homo sapiens, read-out: GI50 ± SE, SF-268 (CNS)
Method: as §1

[4] = test system: NCI-H460 (lung); assay: cancer cell growth inhibition assay (sulforhodamine B), NCI-H460; assay type: cell-based; conditions: Homo sapiens, read-out: GI50 ± SE, NCI-H460 (lung)
Method: as §1

[5] = test system: HCT 116 human colon carcinoma cells; assay: MTT cell viability assay, HCT 116; assay type: cell-based; conditions: at GI50 concentration, 48 hours, FIG. 4
Method: (§2) In this example, compounds 1, 1a, 2, 2a, 3, 4, 6, and 8 were tested for cell toxicity using an 3-[4,5-dimethylthiazol-2-yl]-2,5-diphenyltetrazolium bromide (MTT) cell viability assay. The assay monitors the conversion of MTT to the dye, formazan, by viable cells. The formazan crystals form a precipitate which is dissolved in DMSO and analyzed by spectroscopy. MTT is not converted to formazan by dead cells. Therefore, the amount of dye detected is inversely related to the toxicity of the compound being tested.
(§3) The cancer cells used were HCT 116 (colon carcinoma, human, batch # F-11276), SF-268 (CNS, glioblastoma, human, 0503138), NCI-H460 (lung, large cell carcinoma, human, 503473), and MCF-7 (breast, mammary adenocarcinoma, human, 0501975) were procured from NCI, NIH.
(§4) The cells were grown in RPMI 1640 media supplemented with 10% fetal bovine serum and maintained at 37° C. in a humidified atmosphere of 5% CO2. Cells were seeded in 96 well plates at a density of 2000 cells per well. […] To each well, 200 μL of DMSO was added immediately, shaken for 5 min, and optical density of each well was recorded at 570 nm using Universal Microplate Reader. […]
(§5) The average optical densities of three wells for each sample tested and of DMSO control were calculated. The average optical densities of samples and of DMSO control from the replicates were then calculated. […]

[6] = test system: SF-268 human CNS glioblastoma cells; assay: MTT cell viability assay, SF-268; assay type: cell-based; conditions: at GI50 concentration, 48 hours, FIG. 5; compared with 8, 4, 6 and mixture 1a and 2a
Method: as §2, §3, §4, §5

[7] = test system: lung (A-549) tumor cell line; conditions: Li and McLaughlin, J. Nat. Prod. 52: 660-662 (1989); cited from earlier work
[8] = test system: breast (MCF-7), CNS (SF-268), colon (HCT-116) and lung (NCI-H460) human tumor cell lines; assay: cancer cell growth inhibition assay, statements on the four cell lines together; assay type: cell-based; conditions: MCF-7, SF-268, HCT-116, NCI-H460
Method: as §1, with “Results are expressed as the concentration of compound required to inhibit cellular growth 50% (GI50) ±SE.” left out

[9] = test system: colon (HT-29) tumor cell line; conditions: Li and McLaughlin, J. Nat. Prod. 52: 660-662 (1989); cited from earlier work
[10] = test system: nasal (KBMRI) tumor cell line; conditions: Li and McLaughlin, J. Nat. Prod. 52: 660-662 (1989); cited from earlier work
[11] = test system: NCI-H460 human large cell carcinoma cells; assay: MTT cell viability assay, NCI-H460; assay type: cell-based; conditions: at GI50 concentration, 48 hours, FIG. 6
Method: as §2, §3, §4, §5

[12] = adriamycin values expressed in μM (footnote a), 48 hours
[13] = 48 hours incubation, sulforhodamine B stain

GI50 [1, 12]	GI50 [2, 12]	GI50 [3, 12]	GI50 [4, 12]	GI50 [1, 13]	GI50 [2, 13]	GI50 [3, 13]	GI50 [4, 13]	SMILES	toxicity in MTT assay, HCT 116 (Colon cancer) [5]	toxicity in MTT assay, SF-268 (CNS cancer) [6]	ED50, lung (A-549) [7]	activity against all four cancer cell lines (in words) [8]	ED50, colon (HT-29) [9]	ED50, nasal (KBMRI) [10]	toxicity in MTT assay, NCI H460 (Lung cancer) [11]
2.1 ± 0.6 µM	1.7 ± 0.2 µM	1.9 ± 0.7 µM	1.7 ± 0.4 µM					COc1cccc2c1C(=O)c1c(O)c3c(c(O)c1C2=O)C[C@@](O)(C(=O)CO)C[C@@H]3O[C@H]1C[C@H](N)[C@H](O)[C@H](C)O1 [adriamycin, reference compound]							
				6.3 ± 0.8 µg/mL	6.5 ± 1.2 µg/mL	2.4 ± 1.8 µg/mL	6.3 ± 0.8 µg/mL	Cc1cc2c(c(O)c1O)C(=O)c1c(O)cccc1C2=O [compound 3, 1,2,8-trihydroxy-3-methyl anthraquinone]	higher toxicity than the rest of the anthraquinones	higher toxicity	3.1 µg/mL (≈ 11.5 µM)	consistent activity	2.8 µg/mL (≈ 10.4 µM)	5.7 µg/mL (≈ 21.1 µM)	
				5 ± 0.3 µg/mL	2.8 ± 0.3 µg/mL	3.8 ± 0.7 µg/mL	7.3 ± 0.7 µg/mL	O=C1c2cccc(O)c2C(=O)c2c1cc(CO)c(O)c2O [compound 6, 1,2,8-trihydroxy-3-hydroxymethyl anthraquinone]				consistent activity; also recorded: concentrations similar to that of compound 3			
				21.1 ± 1.8 µg/mL	17.2 ± 0.8 µg/mL	16.3 ± 1.8 µg/mL	15.4 ± 1.7 µg/mL	O=C(O)c1cc(O)c2c(c1)C(=O)c1cccc(O)c1C2=O [compound 8, 1,8-dihydroxy-3-carboxy anthraquinone]				moderate activity			lest toxic

Source: patent publication US6875746B1, “Anticancer anthraquinones and method of use thereof” (Board of Trustees of Michigan State University, priority 2002, dated 2005)
